Experiments:
[1] = tested on: C57BL/6 mice with MOG35-55-induced EAE; test: EAE induced by active immunization with MOG35-55/CFA, clinical scoring and CNS histology; format: in vivo, mouse
Method: In addition, administration of a selective DGAT1 inhibitor attenuated MOG35-55-induced EAE. C57BL/6 mice (8 weeks old) were induced to develop EAE by active immunization with MOG35-55/CFA. Twelve days after disease induction (indicated by the arrow), mice were administered vehicle (10% Captisol) or 10 mg/kg DGAT1 inhibitor A922500 once daily via s.c. injection and followed for clinical disease (n=10/group). Clinical data are presented as the mean score ±SEM. The scoring system is as follows: 0, normal or healthy; 1, limp tail; 2, hindlimb weakness; 3, hindlimb paralysis; 4, hindlimb and forelimb paralysis. *P<0.05 (days 14-30) by Mann-Whitney U test.
EAE models. For EAE induction by active immunization, mice (8-10 weeks old) were immunized via subcutaneous (s.c.) injection with 100 μg MOG35-55 emulsified in CFA as described. Mice also received 250 ng pertussis toxin (List Biological Labs) via tail vein injection at the time of MOG35-55/CFA immunization and again 2 days later. Clinical disease was scored as follows: 0=normal or healthy; 1=flaccid tail; 2=hindlimb weakness; 3=hindlimb paralysis; 4=hindlimb and forelimb paralysis; 5=moribund or dead. Where indicated, A922500 was formulated in 10% Captisol vehicle for in vivo dosing via s.c. injection (100 μl volume). Individuals who conducted the clinical scoring were blinded to the treatment that the mice received.
Histology. Brain and spinal cord tissues were fixed in 10% buffered formalin. Paraffin-embedded tissues were then stained with H&E, and CNS inflammatory foci (>10 mononuclear cells/focus) in leptomeninges and parenchyma were counted in each mouse sample in a blinded fashion.
Statistics. The Mann-Whitney U test was applied to analyze nonparametric clinical EAE data, and the Student's t test was used to analyze all parametric data. The Fisher's exact test was used to compare disease incidence.

C57BL/6 mice = test: Tolerability observations in treated mice (behavior, leukocytes, organ wet weights and gross morphology); format: in vivo, mouse; conditions: mice induced to develop EAE, treated from day 12 p.i.
From the text: To address this possibility, we first determined whether pharmacological inhibition of DGAT1 could modulate clinical EAE. […] Suppression of clinical disease was evident as early as 2 days after dosing began and persisted until termination of the experiment at day 30 p.i. (FIG. 3a). Overall, the compound delayed onset of clinical signs by an average of 6 days and reduced disease incidence at day 30 p.i. by 30%. […] Thus, administration of a selective DGAT1 inhibitor attenuates EAE.

WT CD4+CD25− cells = test: In vitro T regulatory cell induction, WT T cells; format: cell-based, mouse
Method: (§1) FIG. 7. DGAT1 limits retinoic acid-dependent Treg induction. WT or DGAT1 KO CD4+CD25− cells were incubated with T cell-depleted DGAT1 KO MLN cells in delipidated serum in the absence or presence of: soluble anti-CD3; TGFβ; retinol (ROL; 10 nM); A922500 (100 nM); or AM580 (10 nM) where indicated. After 3 days, TCRβ+ lymphocytes in the live gate were analyzed for expression of CD4 and Foxp3 by flow cytometry. (a) Representative FACS plots show the frequency of WT (top panels) or DGAT1 KO (bottom panels) CD4+Foxp3+ Tregs within the gate. (b) FACS data are summarized in bar graph form. Bars depict the mean+SEM of triplicate wells. Two independent experiments were performed.
(§2) This acyl-CoA:retinol acyltransferase (ARAT) function enables DGAT1 to convert retinol (vitamin A) to its storage retinyl ester form. RA, the active metabolite of vitamin A, supports Treg induction; however, T lymphocytes cannot synthesize RA autonomously. We hypothesized that T cell-expressed DGAT1 functions as an ARAT, diverting retinol to its storage ester form. This would lead to a reduction in levels of RA locally. Conversely, DGAT1 deficiency would prevent this sequestration of retinol, leading to elevated RA and Treg induction. […]

[2] = daily 10 mg/kg; models of obesity; cited from earlier work
DGAT1 KO CD4+CD25− cells = test: In vitro T regulatory cell induction, DGAT1 KO T cells; format: cell-based, mouse; conditions: retinol 10 nM; anti-CD3/TGFβ, DGAT1 KO MLN cells, delipidated serum, 3 days
Method: as §1, §2

[3] = 30 days after EAE induction, mean (SEM), 10 mg/kg s.c. once daily from day 12

## O=C(Nc1ccccc1)Nc1ccc(-c2ccc(C(=O)[C@@H]3CCC[C@H]3C(=O)O)cc2)cc1 [A922500]
[1]; 10 mg/kg daily from day 12 p.i., persisted until day 30 p.i.
  Time after start of dosing at which suppression of clinical disease was evident: 2 days
[1]; 10 mg/kg s.c. once daily from day 12 p.i., clinical score 0-5
  Mean maximal score (SEM): 1.4 (0.4)^ns
[1]; 10 mg/kg s.c. once daily from day 12 p.i., only animals that developed EAE
  Mean day of onset (SEM): 20.1 (1.9)* day
[1]; [3]
  No. of CNS inflammatory foci, Meninges: 19.8 (8.8)
  No. of CNS inflammatory foci, Parenchyma: 29.9 (12.4)
[1]; average, versus vehicle, 10 mg/kg daily from day 12 p.i.
  Delay of onset of clinical signs: 6 days
[1]; daily 10 mg/kg, P<0.05 days 14-30 p.i. by Mann-Whitney U test
  Effect on clinical EAE: attenuated EAE
[1]; versus vehicle, 10 mg/kg daily from day 12 p.i.
  Reduction of disease incidence at day 30 p.i.: 30%
C57BL/6 mice
  Leukocyte numbers or composition within peripheral lymphoid tissues: did not induce overt behavioral changes or significantly alter leukocyte numbers or composition within peripheral lymphoid tissues
  Organ toxicity (wet weights and gross morphology of several organs incl. spleen and thymus): did not cause detectable organ toxicity
  Overt behavioral changes: did not induce overt behavioral changes
WT CD4+CD25− cells; A922500 100 nM with retinol 10 nM, anti-CD3/TGFβ, 3 days
  Difference between DGAT1−/− and WT Treg induction responses to retinol: abrogated the difference between DGAT1−/− and WT cell responses
[2]
  Serum TG levels: significantly reduces serum TG levels

## CC1(C)CCC(C)(C)c2cc(C(=O)Nc3ccc(C(=O)O)cc3)ccc21 [AM580]
WT CD4+CD25− cells; AM580 10 nM, WT and DGAT1 KO cells, DGAT1 deficiency had no significant effect
  Treg induction by RAR agonist: enhanced Treg induction

## CC1=C(/C=C/C(C)=C/C=C/C(C)=C/CO)C(C)(C)CCC1 [retinol, All-trans-retinol]
DGAT1 KO CD4+CD25− cells
  Foxp3+ Treg induction: significantly enhanced
